Read-outs that look alike come from different tables or passages of the source.
Tests used:
colon carcinoma 26 = test system: colon carcinoma 26
Procedure: In this trial the R-enantiomers of XK-469, compound 22c, and compound 22b were compared against advanced staged colon carcinoma 26 in female Balb/c mice. […] Cage #2 was 22b at 400 mg/kg and Cage #4 was 22c at 400 mg/kg.
The XK469-R, 22b, and 22c compound doses were all prepared the same, using 3% ethanol, 1% POE-80, and 0.5% sodium bicarbonate. The injection volume was 0.2 mu/mouse IV. […] The mice were Balb/c female mice: DOB Feb. 12, 2001; DOA Mar. 27, 2001; DOT Sep. 8, 2001, with an average body weight of 24.7 grams at the start of Rx administration. The tumor was Colon Carcinoma-26 passage 141; date of implant Sep. 8, 2001, and implanted at 30 to 60 mg fragments bilaterally SC. All tumors were 63 to 171 mg on day 6, the day of first Rx.

[1] = test system: mammary adenocarcinoma-17/Adr; test: Test E: R-enantiomer of compound 22b and compound 22a against early stage mammary adenocarcinoma-17/Adr; assay type: in vivo
Procedure: Then, P.B.S. was added and the pH adjusted to 7 with HCl. A volume of 0.2 ml per injection was administered to animals intravenously. […] Then, P.B.S. was added and the pH was adjusted to 7 with HCl. A volume of 0.2 ml per injection was administered to animals intravenously.

[2] = test system: mammary adenocarcinoma-17/Adr; test: Test D: racemic compound 22c against early stage mammary adenocarcinoma-17/Adr; assay type: in vivo; conditions: for % Body Wt Loss at Nadir / % T/C mass / Activity Rating / Day of Nadir / Drug Deaths / Growth Delay / Log Kill / Median Tumor Mass on Day 10 (Range) / Tumor Free day-42: days 1,2,3,6,7,8
Procedure: Female C3H/HeN (MTV-neg) mice were obtained from N.C.I. Frederick (D.O.B. was Oct. 9, 2000; D.O.A. was Nov. 14, 2000). […] Then, P.B.S. was added, and the pH was adjusted to 7 with HCl. 0.2 ml per injection was administered IV.

[3] = test system: pancreatic ductal adenocarcinoma-03; assay type: in vivo
Procedure: BDF1 female mice were obtained from N.C.I., CRL-Ral (D.O.B. was Feb. 26, 2001; D.O.A. was Mar. 10, 2001). The mice weighed an average of 22.5 gm. Mice were implanted SC with pancreatic ductal adenocarcinoma-03 passage 143. (D.O.T. was May 29, 2001; Td was 2.3 days).
The R-enantiomer of compound 22c was suspended in 3% ethanol, 1% POE-80, 0.25% sodium bicarbonate (by volume) to effect solution. dH2O was then added, and the pH adjusted to 7 with HCl. […] The R-enantiomer of compound 22b was suspended in 3% ethanol, 1% POE-80, 0.5% sodium-bicarbonate (by volume) to effect solution. Then, dH2O was added, and the pH adjusted to 7.5 with HCl. […] Adriamycin (source ADRIA; lot 2033BC) was suspended in dH2O to effect solution, and the pH was 6.0.
Treatment began six days following implant, at which time the tumors were palpable size (126 mg median). The duration of treatment was prolonged (18 days) in order to obtain a clear separation in efficacy between the compounds.

[4] = test system: mammary adenocarcinoma-16/C; test: Test F: R-enantiomers of 22b and 22c against early staged mammary adenocarcinoma-16/C; assay type: in vivo, C3H female mice
Procedure: C3H female mice were obtained from N.C.I. (D.O.B. was […]; D.O.A. was Jan. 27, 2001). The mice weighed an average of 19.2 gm. Mice were implanted SC with mammary adenocarcinoma-16/C passage-170, a fast growing, highly invasive, highly metastatic tumor (D.O.T. was Mar. 8, 2001; Td was 1.2 days).
The R-enantiomers of both Compound 22c and Compound 22b were each suspended in 3% ethanol, 1% POE-80, 0.5% sodium bicarbonate (by volume) to effect solution, P.B.S. was then added and the pH adjusted to 7 with HCl. Adriamycin (ADRIA; lot number 20338c) was suspended in dH2O to effect solution and the pH was adjusted to 6.0. Mice were administered 0.2 ml per IV injection.

[5] = Cg 8, IV 110 mg/kg/inj days 6,10, total 220 mg/kg
[6] = Cg 6, IV 80 mg/kg/inj days 6,8,10,14,16, total 400 mg/kg
[7] = Cg 7, IV 50 mg/kg/inj days 6,8,10,13,15, total 250 mg/kg
[8] = Cage 3, IV 36 mg/kg day 1, 48 mg/kg/inj qd 2-7, total 324 mg/kg
[9] = Cage 4, IV 7 inj, total 162 mg/kg
[10] = Cage 5, IV 7 inj, total 81 mg/kg
[11] = Cg 5, IV 50 mg/kg/inj days 6,8,10,13,15, total 250 mg/kg
[12] = Cage 3, IV 50, 62.5, then 60 mg/kg/inj, total 352.5 mg/kg
[13] = Cage 4, IV 30, 37.5, then 36 mg/kg/inj, total 211.5 mg/kg
[14] = Cg 13 in table (Cage 12 in text), IV 80 mg/kg/inj days 6,9,12,15,18,21, total 480 mg/kg
[15] = Cage 2, IV 65 mg/kg/inj qd 1-4, total 260 mg/kg
[16] = Cage 3, IV 65 mg/kg/inj days 1,3,5,7, total 260 mg/kg
[17] = Cage 3, IV 65 mg/kg/inj days 1,3,5,7, total 260 mg/kg, listed as R-enantiomer of compound 22c
[18] = Cage 4, IV 40 mg/kg/inj days 1,3,5,7, total 160 mg/kg
[19] = Cage 4, IV 40 mg/kg/inj days 1,3,5,7, total 160 mg/kg, listed as R-enantiomer of compound 22c

## O=P1(N(CCCl)CCCl)NCCCO1 (stereo not drawn) [Cytoxan]
Colon carcinoma 26; [5]
  % Body Wt change at nadir: −9.4%
  Activity Rating: no meaningful activity
  CR's: 0/5
  Drug Deaths: 0/5
  Growth Delay: 1 days
  Log Kill: 0.2
  Median time for tumors to 700 mg (range): 14 (12-15) days
  PR's: 0/5
  Tumor Free day-156: 0/5
  day of nadir: 12 days

## CC(Oc1ccc(Oc2cnc3ccc(Cl)cc3n2)cc1)C(=O)[O-].[Na+] (stereo not drawn) [XK469-R]
Colon carcinoma 26; [6]
  % Body Wt change at nadir: −8.1%
  Activity Rating: + (0.7-1.2)
  CR's: 0/6
  Drug Deaths: 0/6
  Growth Delay: 5 days
  Log Kill: 0.9
  Median time for tumors to 700 mg (range): 18 (15-20) days
  PR's: 0/6
  Tumor Free day-156: 0/6
  day of nadir: 13 days
Colon carcinoma 26; [7]
  % Body Wt change at nadir: −4.0%
  Activity Rating: inactive
  CR's: 0/6
  Drug Deaths: 0/6
  Growth Delay in Days: none
  Log Kill: none
  Median time for tumors to 700 mg (range): 13 (11.5-20) days
  PR's: 0/6
  Tumor Free day-156: 0/6
  day of nadir: 13 days

## CC(Oc1ccc(Oc2ccc3ccc(F)cc3n2)cc1)C(=O)O (racemic) [Compound 22a, 2-[4-(7-fluoroquinolin-2-yloxy)phenoxy]propanoic acid]
[1]; [8]
  % Body Wt Loss at Nadir: −1.6%
  % T/C mass: 14%
  Activity Rating: ++ (1.3-1.9)
  Day of Nadir: 5 days
  Drug Deaths: 0/5
  Growth Delay: 5 days
  Log Kill: 1.5
  Median Tumor Mass on day 9 (Range): 138 (63-207) mg
  Tumor Free day-23: 0/5
[1]; Cage 3, IV 48 mg/kg/inj, limits higher individual dosages
  Neuromuscular toxicity: severe neuromuscular toxicity
[1]; Cage 3, IV 48 mg/kg/inj, longer for the rear legs
  Duration of leg dysfunction (front legs): 15 min
[1]; [9]
  % Body Wt Loss at Nadir: −1.5%
  % T/C mass: >100%
  Activity Rating: inactive
  Day of Nadir: 5 days
  Drug Deaths: 0/5
  Growth Delay: 1 days
  Log Kill: 0.3
  Median Tumor Mass on day 9 (Range): 975 (252-1836) mg
  Tumor Free day-23: 0/5
[1]; [10]
  % Body Wt Loss at Nadir: −3.0%
  % T/C mass: 77%
  Activity Rating: inactive
  Day of Nadir: 5 days
  Drug Deaths: 0/5
  Growth Delay: 1 days
  Log Kill: 0.3
  Median Tumor Mass on day 9 (Range): 743 (725-1413) mg
  Tumor Free day-23: 0/5

## CC(Oc1ccc(Oc2ccc3ccc(Br)cc3n2)cc1)C(=O)O (racemic) [Racemic 22c, 2-[4-(7-bromoquinolin-2-yloxy)phenoxy]propanoic acid]
Colon carcinoma 26; Cage 4, 400 mg/kg, omitted from Table 8
  Toxicity of dose group: toxic
Colon carcinoma 26; [11]
  Activity Rating: ++++ (>2.8)
  CR's: 3/6
  tumor free survivors on day 55: 3/6
[2]; Cage 3, 60 to 62.5 mg/kg dose IV
  Duration of slowing of nerve conduction: approximately 10 minutes
[2]; Cage 3, 60 to 62.5 mg/kg dose IV, mild gait disturbance
  Neuromuscular toxicity: modest slowing of nerve conduction
[2]; [12]
  % Body Wt Loss at Nadir: −5.5%
  % T/C mass: 0%
  Activity Rating: ++++ (>2.8)
  Day of Nadir: 11 days
  Drug Deaths: 0/5
  Growth Delay: 14 days
  Log Kill: 4.2
  Median Tumor Mass on Day 10 (Range): 0 (0-63) mg
  Tumor Free day-42: 0/5
[2]; Cage 3, total 352.5 mg/kg IV
  Day tumors reached 1000 mg (range): 21 (range 19-42) day
[2]; [13]
  % Body Wt Loss at Nadir: −4.1%
  % T/C mass: 5.6%
  Activity Rating: ++++ (>2.8)
  Day of Nadir: 13 days
  Drug Deaths: 0/5
  Growth Delay: 10 days
  Log Kill: 3.0
  Median Tumor Mass on Day 10 (Range): 172 (0-344) mg
  Tumor Free day-42: 0/5
[2]; Cage 4, IV 30-37.5 mg/kg/inj, total 211.5 mg/kg
  Neuromuscular toxicity: no gait disturbance
[2]; Cage 4, total 211.5 mg/kg IV
  Day tumors reached 1000 mg (range): 17 (range 14-21) day

## C[C@@H](Oc1ccc(Oc2ccc3ccc(Br)cc3n2)cc1)C(=O)O [Compound R-22c]
[3]; Cage 12 in text, IV 80 mg/kg/inj, lasted only a few minutes
  Behavior post injection: agitated post IV injection
[3]; Cage 12 in text, IV 80 mg/kg/inj, total 480 mg/kg
  Neuromuscular toxicity: no neuromuscular toxicity
[3]; [14]
  % Body Wt change between day 6 and day 24: +5.9%
  % T/C mass: 2.8%
  Activity Rating: ++++ (>2.8)
  CR's: 3/4
  Drug Deaths: 0/4
  Growth Delay: 23.5 days
  Log Kill: 3.1
  Median Tumor Mass on Day 24 (Range): 63 mg
  Median time for tumors to 1,000 mg (range): 40 days
  PR's: 3/4
  Tumor Free day-157: 0/4
[4]; [15]
  % Body Wt Loss at Nadir: −22.9%
  % T/C mass: toxic
  Activity Rating: toxic
  Cause of death: G.I. epithelial damage
  Day of Nadir: 6 days
  Drug Deaths: 5/5
  Growth Delay in Days: toxic
  Log Kill: toxic
  Median Tumor Mass on Day 10 (Range): toxic
  Median time for tumors to 1000 mg (range): toxic
  Neuromuscular toxicity: No neuromuscular toxicity
  Tumor Free day-155: 0/5
[4]; Cage 2, IV 65 mg/kg/inj qd 1-4, total 260 mg/kg, listed as R-enantiomer of compound 22c
  Drug Deaths: All the mice died
[4]; [16]
  % Body Wt Loss at Nadir: −8.3%
  % T/C mass: 4%
  Activity Rating: ++ (1.3-1.9)
  Day of Nadir: 9 days
  Day of full recovery of body weight: 12 days
  Drug Deaths: 0/5
  Growth Delay: 5.8 days
  Log Kill: 1.7
  Median Tumor Mass on Day 10 (Range): 63 mg
  Median time for tumors to 1000 mg (range): 15.3 (14-21.5) days
  Neuromuscular toxicity: no neuromuscular toxicity
  Tumor Free day-155: 0/5
[4]; [17]
  % Body Wt Loss at Nadir: −8.3%
  % T/C mass: 4%
  Drug Deaths: no deaths
[4]; [18]
  % Body Wt Loss at Nadir: +6.4%
  % T/C mass: 9%
  Activity Rating: ++ (1.3-1.9)
  Day of Nadir: 8 days
  Drug Deaths: 0/5
  Growth Delay: 4.7 days
  Log Kill: 1.4
  Median Tumor Mass on Day 10 (Range): 138 mg
  Median time for tumors to 1000 mg (range): 14.2 (12.5-16.7) days
  Tumor Free day-155: 1/5
[4]; [19]
  % Body Wt Loss at Nadir: +6.4%
  % T/C mass: 9%
[4]; whole trial (Test F), IV
  Neuromuscular toxicity: completely devoid of neuromuscular toxicity
Colon carcinoma 26; [11]
  Drug Deaths: 0/6
Colon carcinoma 26; mouse, in vivo
  % Body Wt change at nadir: −8.1% (17)
  Activity Rating: ++++ (key: ++++: >2.8; +++: 2.0-2.8; ++: 1.3-1.9; +: 0.7-1.2; −: <0.7)
  CR's: 3/6
  Growth Delay in Days: 3/6
  Log Kill: >3.5
  Median time for tumors to 700 mg (range): 3/6 tumor free
  PR's: 3/6
  Tumor Free day-156: 3/6
  day of nadir: −8.1% (17) day

From patent publication US7507749B2, “Antitumor agents” (priority 2001, dated 2009)
